Measured values as given in patent US20170143771A1, “COMPOSITION CONTAINING PSEUDOMONAS AERUGINOSA CULTURE SOLUTION EXTRACT HAVING ANTIBIOTIC AND ANTISEPTIC ACTIVITIES, AND USE THEREOF” (JOINT CENTER FOR BIOSCIENCES, priority 2014, published 2017).

Legend:
[1] = DPPH scavenging activity test (antioxidative effect); format: biochemical; conditions: concentration of 0.5% or more; 30 minutes, absorbance 517 nm; compared with ascorbic acid (AA)
Protocol: The color change of the DPPH radical is distinctive as it reacts with a reagent having excellent antioxidative ability. R1, ascorbic acid (AA), and methyl paraben (MTP) each were dissolved at different concentrations in methanol. The thus obtained samples (100 μl) each were dissolved at a concentration of 0.006% in methanol, and mixed with 100 μl of the DPPH radical solution to prepare a total volume of 200 μl, followed by reaction in a light-blocked space for 30 minutes. After completion of the reaction, the absorbance of each mixture was measured at 517 nm to determine antioxidative ability of each sample.

Staphylococcus aureus = assay: Preservative power test (challenge test), lotion dosage form; format: cell-based; conditions: 0.5%
Protocol: (§1) In order to investigate the possibility of R1 as a preservative compared with methyl paraben, the preservative power test was conducted by measuring the sterilizing power of a toner dosage form and a lotion dosage form of R1 against gram positive pathogens (Staphylococcus aureus and Bacillus cereus) and gram negative pathogens (Pseudomonas aeruginosa and Escherichia coli). The preservative power test was conducted on the basis of the U.S. Cosmetics, Toiletry, and Fragrance Association (CTFA), and the basis is that a particular material has a possibility as a preservative if the particular material in dosage forms of a toner or lotion kills 99.9% of inoculated bacteria within 7 days.
(§2) R1 and methyl paraben, which were dissolved in methanol, each were added to the toner dosage form, so that the final concentration of each of R1 and the methyl paraben had 0% and 0.5%, and the S. aureus, B. cereus, P. aeruginosa, and C. albicans cultures each were inoculated in each container. The number of inoculated bacterial cells was 106-107 colony forming unit (CFU)/ml. While the bacteria-inoculated lotions were kept at room temperature, each lotion was diluted immediately, one day, three days, five days, and seven days after the inoculation of bacteria, and 200 μl of the lotions inoculated with S. aureus, B. cereus, and P. aeruginosa each were as plated on LB agar plate, and 200 μl of the lotion inoculated with C. albicans was plated on YPD agar plate. The death or not of bacteria was checked by calculating the number of cells and then comparing the calculated number with the number of initially inoculated bacteria. As control, only methanol was added to the lotion dosage form, and the bacteria culture was inoculated, followed by repeated tests.

Candida albicans = assay: as above; format: cell-based; conditions: 0.5%
Protocol: as §1, §2

Bacillus cereus = assay: as above; format: cell-based; conditions: 0.5%
Protocol: as §1, §2

Pseudomonas aeruginosa = assay: as above; format: cell-based; conditions: 0.5%
Protocol: as §1, §2

S. aureus = assay: Antibiotic activity of R1 fractions and rhamnolipids (clear zone on agar plate); format: cell-based, Staphylococcus aureus; conditions: concluded from fraction activity and LC/MS peaks 1 and 2
Protocol: 1 mg of a mixture state of R1 extracted from a microorganism (P. aeruginosa) culture was dissolved in methanol, and then injected in the sep-Pak vac 1cc tc18 cartridge column. After that, the column was washed with solvent A, and solvent B as a development solvent was injected thereinto. Solvent B with different concentrations was injected into the column, and the fractions passing through the column were collected, and named fraction 1, fraction 2, fraction 3, fraction 4, fraction 5, and fraction 6. The different concentrations of solvent B injected to the column were 50%, 55%, 60%, 65%, 70%, and 75%.
Each of the obtained fractions was dried, and then dissolved at a concentration of 10 mg/ml in methanol. 20 μl of each of the fractions dissolved in methanol was dropped on an agar plate plated with the S. aureus culture, and cultured at 37° C. for 18 hours. After 18 hours, the clear zone generated on the agar plate was observed.

## COC(=O)c1ccc(O)cc1 [MTP, methyl paraben]
[1]
  antioxidative effect (DPPH scavenging activity): significantly low antioxidative effect
Staphylococcus aureus; Day 0
  survival rate of inoculated bacteria: 100%
Staphylococcus aureus; Day 1
  survival rate of inoculated bacteria: 0%
Staphylococcus aureus; Day 3
  survival rate of inoculated bacteria: 0%
Staphylococcus aureus; Day 5
  survival rate of inoculated bacteria: 0%
Staphylococcus aureus; Day 7
  survival rate of inoculated bacteria: 0%
Candida albicans; Day 0
  survival rate of inoculated bacteria: 100%
Candida albicans; Day 1
  survival rate of inoculated bacteria: 0%
Candida albicans; Day 3
  survival rate of inoculated bacteria: 0%
Candida albicans; Day 5
  survival rate of inoculated bacteria: 0%
Candida albicans; Day 7
  survival rate of inoculated bacteria: 0%
Bacillus cereus; Day 0
  survival rate of inoculated bacteria: 100%
Bacillus cereus; Day 1
  survival rate of inoculated bacteria: 0.12%
Bacillus cereus; Day 3
  survival rate of inoculated bacteria: 0.06%
Bacillus cereus; Day 5
  survival rate of inoculated bacteria: 0.02%
Bacillus cereus; Day 7
  survival rate of inoculated bacteria: 0.01%
Pseudomonas aeruginosa; Day 0
  survival rate of inoculated bacteria: 100%
Pseudomonas aeruginosa; Day 1
  survival rate of inoculated bacteria: 0%
Pseudomonas aeruginosa; Day 3
  survival rate of inoculated bacteria: 0%
Pseudomonas aeruginosa; Day 5
  survival rate of inoculated bacteria: 0%
Pseudomonas aeruginosa; Day 7
  survival rate of inoculated bacteria: 0%

## CCCCCCCC(CC(=O)O)OC(=O)CC(CCCCCCC)O[C@@H]1O[C@@H](C)[C@H](O)[C@@H](O)[C@H]1O (some centres unmarked) [Rha-C10-C10]
S. aureus
  active ingredient having antibacterial activity: active ingredients having antibacterial activity

## CCCCCCCC(CC(=O)O)OC(=O)CC(CCCCCCC)OC1OC(C)C(O)C(O)C1OC1OC(C)C(O)C(O)C1O (stereo not drawn) [Rha-Rha-C10-C10]
S. aureus
  active ingredient having antibacterial activity: active ingredients having antibacterial activity
